Consider 27 compounds from US12570642B2, “GLP-IR modulating compounds” (Gilead Sciences, Inc., priority 2021, dated 2026).

The assay concerns the target GLP-1R (Homo sapiens, UniProt P43220). Briefly: GLP-1R Activation - cAMP Assay. In kind it is cell-based. As to conditions: each compound run on one of the two cAMP assays (Assay 1 or Assay 2, not specified). In a few lines: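 cAMP rise read by HTRF after 30 min agonist exposure (10-point titration, 37 °C) in HBSS/20 mM Hepes/0.1% BSA, following 1 h pre-incubation. Cells: stable GLP-1R CHO line, 1,000/well, seeded overnight. Sigmoidal fit of response vs log concentration gives EC50.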

Where [1] appears, read: cAMP increase in CHO cells stably expressing GLP-1R.

GLP-1R, sequence (P43220 24-463): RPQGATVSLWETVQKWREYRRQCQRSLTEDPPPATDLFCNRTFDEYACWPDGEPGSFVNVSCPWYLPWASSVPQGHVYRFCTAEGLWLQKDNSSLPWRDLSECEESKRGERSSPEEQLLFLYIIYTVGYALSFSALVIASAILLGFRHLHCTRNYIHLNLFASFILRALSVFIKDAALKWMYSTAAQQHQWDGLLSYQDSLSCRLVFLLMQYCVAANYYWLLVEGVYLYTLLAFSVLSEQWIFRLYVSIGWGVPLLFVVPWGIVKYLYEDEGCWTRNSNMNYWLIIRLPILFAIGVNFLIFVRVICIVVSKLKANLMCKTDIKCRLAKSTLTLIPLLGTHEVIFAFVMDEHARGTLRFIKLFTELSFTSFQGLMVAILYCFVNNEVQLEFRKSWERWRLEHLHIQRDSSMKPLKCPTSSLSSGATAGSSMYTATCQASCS

Under setting [1], `Cc1cc(Cc2nc3c(F)cc(C(=O)O)cc3n2[C@@H]2COCC2(C)C)c(Cl)cc1-c1ccnc(OCc2ccc(Cl)cc2F)n1` [Example 317, (S)-2-(2-chloro-4-(2-((4-chloro-2-fluorobenzyl)oxy)pyrimidin-4-yl)-5-methylbenzyl)-1-(4,4-dimethyltetrahydrofuran-3-yl)-4-fluoro-1H-benzo[d]imidazole-6-carboxylic acid] returned a half-maximal effective concentration (EC50) of 0.451 nM.
On the same count and under the same terms, with `CC1(C)COC[C@H]1n1c(Cc2c(F)cc(-c3cccc(OCc4ccc(Cl)cc4F)n3)cc2F)nc2c(F)cc(C(=O)O)cc21` [Example 305, (S)-2-(4-(6-((4-chloro-2-fluorobenzyl)oxy)pyridin-2-yl)-2,6-difluorobenzyl)-1-(4,4-dimethyltetrahydrofuran-3-yl)-4-fluoro-1H-benzo[d]imidazole-6-carboxylic acid] the figure was 0.125 nM; with `COCCn1c(Cc2cc(F)c(-c3cccc(OCc4cnc(C(F)F)cn4)n3)cc2F)nc2ccc(C(=O)O)cc21` [Example 94], 23.9 nM.
Compound `N#Cc1ccc(COc2cccc(-c3cc(F)c(Cc4nc5ccc(C(=O)O)cc5n4[C@H]4COC[C@H]4CO)cc3F)n2)c(F)c1` (single isomer, unassigned) [Example 436] registered an EC50 under setting [1] of 0.993 nM.
On to `N#Cc1ccc(COc2cccc(-c3cc(F)c(Cc4nc5ccc(C(=O)O)cc5n4[C@H]4CNC(=O)C4)cc3F)n2)c(F)c1` [Example 3, (R)-2-(4-(6-((4-cyano-2-fluorobenzyl)oxy)pyridin-2-yl)-2,5-difluorobenzyl)-1-(5-oxopyrrolidin-3-yl)-1H-benzo[d]imidazole-6-carboxylic acid], for which the EC50 ([…]) was 11.5 nM.
In the case of `CC(F)(F)c1ccc(COc2cccc(-c3cc(F)c(Cc4nc5ccc(C(=O)O)cc5n4[C@@H]4COCC4(C)C)cc3F)n2)nc1` [Example 195, (S)-2-(4-(6-((5-(1,1-difluoroethyl)pyridin-2-yl)methoxy)pyridin-2-yl)-2,5-difluorobenzyl)-1-(4,4-dimethyltetrahydrofuran-3-yl)-1H-benzo[d]imidazole-6-carboxylic acid], the EC50 under setting [1] came out at 0.539 nM.
Under setting [1], `CC1(C)COC[C@H]1n1c(Cc2ccc(-c3ccc(F)c(OCc4ccc(C#N)cc4)n3)cc2F)nc2c(F)cc(C(=O)O)cc21` [Example 308, (S)-2-(4-(6-((4-cyanobenzyl)oxy)-5-fluoropyridin-2-yl)-2-fluorobenzyl)-1-(4,4-dimethyltetrahydrofuran-3-yl)-4-fluoro-1H-benzo[d]imidazole-6-carboxylic acid] registered an EC50 of 0.18 nM.
Same read-out and setting: with `CC1(C)COC[C@@H]1n1c(Cc2cc(F)c(-c3cccc(OCc4ncc(Cl)cc4F)n3)cc2F)nc2ccc(C(=O)O)cc21` (single isomer, unassigned) [Example 289B] the figure was 0.931 nM; with `C[C@H]1COC[C@H]1n1c(Cc2cc(F)c(-c3cccc(OCc4ccc(Cl)cc4F)n3)cc2F)nc2ccc(C(=O)O)cc21` [Example 472, 2-(4-(6-((4-chloro-2-fluorobenzyl)oxy)pyridin-2-yl)-2,5-difluorobenzyl)-1-((3S,4R)-4-methyltetrahydrofuran-3-yl)-1H-benzo[d]imidazole-6-carboxylic acid], 0.069 nM.
Still for that read-out and setting: with `COCCn1c(Cc2cc(F)c(-c3cccc(OCc4ccc(-c5ccnn5C)nc4)n3)cc2F)nc2ccc(C(=O)O)cc21` [Example 110, 2-(2,5-difluoro-4-(6-((6-(1-methyl-1H-pyrazol-5-yl)pyridin-3-yl)methoxy)pyridin-2-yl)benzyl)-1-(2-methoxyethyl)-1H-benzo[d]imidazole-6-carboxylic Acid] the figure was 4.93 nM.
For `CC1(C)COCC1n1c(Cc2cc(F)c(-c3cccc(OCc4ccc(C#N)cc4F)n3)cc2F)nc2c(Br)cc(C(=O)O)cc21` (stereo not drawn) [Example 13, 4-bromo-2-(4-(6-((4-cyano-2-fluorobenzyl)oxy)pyridin-2-yl)-2,5-difluorobenzyl)-1-(4,4-dimethyltetrahydrofuran-3-yl)-1H-benzo[d]imidazole-6-carboxylic Acid], the EC50 under setting [1] amounted to 0.19 nM.
In turn, `CC1(C)COC[C@H]1n1c(Cc2cc(F)c(-c3cccc(OCc4ccccc4)n3)cc2F)nc2ccc(C(=O)O)cc21` [Example 363, (S)-2-(4-(6-(benzyloxy)pyridin-2-yl)-2,5-difluorobenzyl)-1-(4,4-dimethyltetrahydrofuran-3-yl)-1H-benzo[d]imidazole-6-carboxylic acid] came in with an EC50 under setting [1] of 0.369 nM.
The same measure, in the same setting: with `CC1(C)COC[C@H]1n1c(Cc2cc(F)c(-c3cccc(OCc4ccc(Cl)cc4F)n3)cc2F)nc2c(Cl)cc(C(=O)O)cc21` [Example 126, (S)-4-chloro-2-(4-(6-((4-chloro-2-fluorobenzyl)oxy)pyridin-2-yl)-2,5-difluorobenzyl)-1-(4,4-dimethyltetrahydrofuran-3-yl)-1H-benzo[d]imidazole-6-carboxylic Acid] the figure was 0.332 nM.
Same read-out and setting: with `CO[C@]1(C)COC[C@@H]1n1c(Cc2cc(F)c(-c3cccc(OCc4ccc(C#N)cc4F)n3)cc2F)nc2ccc(C(=O)O)cc21` (single isomer, unassigned) [Example 311B, 2-[[4-[6-[(4-cyano-2-fluoro-phenyl)methoxy]-2-pyridyl]-2,5-difluoro-phenyl]methyl]-3-[4-methoxy-4-methyl-tetrahydrofuran-3-yl]benzimidazole-5-carboxylic Acid] the figure was 0.159 nM; with `COc1cc(Cl)ncc1COc1cccc(-c2cc(F)c(Cc3nc4ccc(C(=O)O)cc4n3[C@@H]3COCC3(C)C)cc2F)n1` (single isomer, unassigned) [Example 290A], 0.063 nM.
Still for that read-out and setting: with `CO[C@H]1COC[C@H]1n1c(Cc2cc(F)c(-c3cccc(OCc4ccc(C#N)cc4F)n3)cc2F)nc2ccc(C(=O)O)cc21` (single isomer, unassigned) [Example 276] the figure was 0.108 nM.
The compound `CC1(C)COC[C@@H]1n1c(Cc2cc(F)c(-c3cccc(OCc4ccc(C(F)F)cc4F)n3)cc2F)nc2ccc(C(=O)O)cc21` (single isomer, unassigned) [Example 383B] returned an EC50 under setting [1] of 0.971 nM.
On the same count and under the same terms, with `CO[C@@H]1CC[C@@H]1n1c(Cc2cc(F)c(-c3cccc(OCc4ccc(C#N)cc4F)n3)cc2F)nc2ccc(C(=O)O)cc21` [Example 65, 2-(4-(6-((4-cyano-2-fluorobenzyl)oxy)pyridin-2-yl)-2,5-difluorobenzyl)-1-((1S,2R)-2-methoxycyclobutyl)-1H-benzo[d]imidazole-6-carboxylic Acid] the figure was 5.05 nM.
For `Cc1cc(Cc2nc3ccc(C(=O)O)cc3n2C[C@@H]2CCO2)c(Cl)cc1-c1ccc(F)c(OCc2ccc(C#N)cc2F)n1` [Example 144, (S)-2-(2-chloro-4-(6-((4-cyano-2-fluorobenzyl)oxy)-5-fluoropyridin-2-yl)-5-methylbenzyl)-1-(oxetan-2-ylmethyl)-1H-benzo[d]imidazole-6-carboxylic Acid], under setting [1], the EC50 was determined as 1.08 nM.
On the same count and under the same terms, with `CC1(C)COC[C@H]1n1c(Cc2cc(F)c(-c3cccc(OCc4ccc(C#N)cc4F)n3)cc2F)nc2c(Cl)cc(C(=O)O)cc21` [Example 130, (S)-4-chloro-2-(4-(6-((4-cyano-2-fluorobenzyl)oxy)pyridin-2-yl)-2,5-difluorobenzyl)-1-(4,4-dimethyltetrahydrofuran-3-yl)-1H-benzo[d]imidazole-6-carboxylic Acid] the figure was 0.038 nM; with `COc1cnccc1COc1cccc(-c2cc(F)c(Cc3nc4ccc(C(=O)O)cc4n3[C@@H]3COCC3(C)C)cc2F)n1` [Example 430, (S)-2-(2,5-difluoro-4-(6-((3-methoxypyridin-4-yl)methoxy)pyridin-2-yl)benzyl)-1-(4,4-dimethyltetrahydrofuran-3-yl)-1H-benzo[d]imidazole-6-carboxylic acid], 0.02 nM.
On the same count and under the same terms, with `COCCn1c(Cc2cc(F)c(-c3cccc(OCc4ccc(-c5ccc(C)nc5)cc4F)n3)cc2F)nc2ccc(C(=O)O)cc21` [Example 105, 2-(2,5-difluoro-4-(6-((2-fluoro-4-(6-methylpyridin-3-yl)benzyl)oxy)pyridin-2-yl)benzyl)-1-(2-methoxyethyl)-1H-benzo[d]imidazole-6-carboxylic Acid] the figure was 1.55 nM; with `COC[C@H]1COC[C@H]1n1c(Cc2cc(F)c(-c3ccc(F)c(OCc4ccc(C(F)(F)F)cc4)n3)cc2F)nc2ccc(C(=O)O)cc21` [Example 538, 2-(2,5-difluoro-4-(5-fluoro-6-((4-(trifluoromethyl)benzyl)oxy)pyridin-2-yl)benzyl)-1-((3S,4S)-4-(methoxymethyl)tetrahydrofuran-3-yl)-1H-benzo[d]imidazole-6-carboxylic acid], 0.109 nM.
`Cc1cc(F)ccc1COc1cccc(-c2cc(F)c(Cc3nc4ccc(C(=O)O)cc4n3[C@@H]3COCC3(C)C)cc2F)n1` [Example 465, (S)-2-(2,5-difluoro-4-(6-((4-fluoro-2-methylbenzyl)oxy)pyridin-2-yl)benzyl)-1-(4,4-dimethyltetrahydrofuran-3-yl)-1H-benzo[d]imidazole-6-carboxylic acid] came in with an EC50 under setting [1] of 0.18 nM.
Compound `N#Cc1ccc(COc2cccc(-c3cc(F)c(Cc4nc5ccc(C(=O)O)cc5n4CC4CC5(CC5)CO4)cc3F)n2)c(F)c1` (stereo not drawn) [Example 274, 1-(5-oxaspiro[2.4]heptan-6-ylmethyl)-2-(4-(6-((4-cyano-2-fluorobenzyl)oxy)pyridin-2-yl)-2,5-difluorobenzyl)-1H-benzo[d]imidazole-6-carboxylic acid] came in with an EC50 under setting [1] of 0.643 nM.
On the same count and under the same terms, in the case of `CC1(C)COC[C@H]1n1c(Cc2cc(F)c(-c3cccc(OCc4c(F)cc(Cl)cc4F)n3)cc2F)nc2ccc(C(=O)O)cc21` [Example 489, (S)-2-(4-(6-((4-chloro-2,6-difluorobenzyl)oxy)pyridin-2-yl)-2,5-difluorobenzyl)-1-(4,4-dimethyltetrahydrofuran-3-yl)-1H-benzo[d]imidazole-6-carboxylic acid] it was 0.342 nM; in that of `Cn1cc(-c2cc(F)c(COc3cccc(-c4cc(F)c(Cc5nc6ccc(C(=O)O)cc6n5C5COCC5(C)C)cc4F)n3)cn2)cn1` (stereo not drawn) [Example 90], 0.7 nM.
